Assays:
[1] = wn = mass fraction of the nth substance listed; details: Pendant drop shape
[2] = molar heat capacity at constant pressure; wn = mass fraction of the nth substance listed; details: 101 kPa, Liquid, Small sample (50 mg) DSC

CC[n+]1ccc(C)cc1.O=S(=O)([N-]S(=O)(=O)C(F)(F)F)C(F)(F)F + CCn1cc[n+](C)c1.N#CN=C=[N-]
Details | molar heat capacity at constant pressure, w2 = 0 [J/K/mol] | molar heat capacity at constant pressure, w2 = 0.25 [J/K/mol] | molar heat capacity at constant pressure, w2 = 0.5 [J/K/mol] | molar heat capacity at constant pressure, w2 = 0.75 [J/K/mol] | surface tension liquid-gas, w2 = 0 [mN/m] | surface tension liquid-gas, w2 = 0.25 [mN/m] | surface tension liquid-gas, w2 = 0.5 [mN/m] | surface tension liquid-gas, w2 = 0.75 [mN/m]
[1], 298.2 K | – | – | – | – | 24.3 | 40.8 | 45.8 | 52
[1], 303.2 K | – | – | – | – | 23.9 | 40.3 | 45.3 | 51.5
[1], 313.2 K | – | – | – | – | 23.1 | 39.2 | 44.1 | 50.3
[1], 323.2 K | – | – | – | – | 22.2 | 38 | 42.8 | 49
[2], 296.2 K | 627 | 504 | 421 | 363 | – | – | – | –
[2], 300.2 K | 634 | 509 | 425 | 366 | – | – | – | –
[2], 304.2 K | 637 | 512 | 427 | 369 | – | – | – | –
[2], 308.2 K | 640 | 514 | 430 | 371 | – | – | – | –
[2], 312.2 K | 644 | 517 | 433 | 374 | – | – | – | –
[2], 316.2 K | 647 | 520 | 436 | 376 | – | – | – | –
[2], 320.2 K | 649 | 522 | 438 | 378 | – | – | – | –
[2], 324.2 K | 652 | 524 | 441 | 381 | – | – | – | –
[2], 328.2 K | 655 | 528 | 444 | 383 | – | – | – | –
[2], 332.2 K | 659 | 532 | 448 | 387 | – | – | – | –
[2], 336.2 K | 665 | 537 | 451 | 390 | – | – | – | –
[2], 340.2 K | 669 | 541 | 455 | 393 | – | – | – | –
[2], 344.2 K | 674 | 546 | 459 | 397 | – | – | – | –
[2], 348.2 K | 679 | 550 | 463 | 400 | – | – | – | –
[2], 352.2 K | 685 | 555 | 467 | 404 | – | – | – | –
[2], 356.2 K | 691 | 560 | 472 | 407 | – | – | – | –
[2], 360.2 K | 697 | 565 | 477 | 411 | – | – | – | –
[2], 364.2 K | 703 | 570 | 481 | 415 | – | – | – | –
[2], 368.2 K | 708 | 576 | 486 | 419 | – | – | – | –
[2], 372.2 K | 715 | 584 | 492 | 424 | – | – | – | –

Source: the NIST ThermoML archive (doi:10.1016/j.jct.2014.03.023)
